# Measurements from PMC8011784, “Chronic peptide-based GIP receptor inhibition exhibits modest glucose metabolic changes in mice when administered either alone or combined with GLP-1 agonism” (PLoS ONE, 2021).
# Legend:
# Assay type in all cases: in vivo, mouse
# DIO mice [1] = assay: Chronic GIPA-1 study: body weight and food intake in DIO mice; conditions: 28 days, HFD; liraglutide 0.2 mg/kg/day SC, GIPA-1 ~4.5 mg/kg/day osmotic minipump; n = 10; vs vehicle (combination: vs liraglutide)
# Description: (§1) 23-week-old male C57BL/6JRj mice (n = 40), fed a HFD (SSNIFF® diet #12492[60% fat, 20% protein, 20% carbohydrate]) for 14 weeks, were distributed into 4 test groups and received daily either vehicle, liraglutide (0.2 mg/kg/day), GIPA-1 (~4.5 mg/kg/day) or liraglutide + GIPA-1 for 4 weeks while still maintained on HFD. GIPA-1 was delivered using minipumps in order to achieve sufficient GIPR antagonism based on the properties of this peptide (Fig 2A). Liraglutide was dissolved in phosphate-buffered saline (PBS) plus 0.1% bovine serum albumin (BSA) (vehicle 1) and GIPA-1 in DMSO/propylene glycol (50/50 volume per volume) (vehicle 2). 100 μL minipumps (Alzet) were filled with GIPA-1 (30 mg/mL) or vehicle 2 and kept in 0.9% saline at 37°C overnight. […] Fasted (4 hrs) blood glucose and insulin levels were measured on study day -3, 14 and 27. […] Blood glucose was measured before their daily dosing and at 0, 15, 30 60, 120, 180 min after glucose administration. Plasma insulin was measured at 0 and 15 min. Whole body weight and food intake were measured throughout the study period. […]
# Fig 2 Effects of chronic GIPR antagonism on body weight, food intake, and fasting blood glucose and insulin. […] Statistical analysis was calculated using two-way ANOVA with Tukey’s post-hoc test and one-way ANOVA for AUC with Dunnett’s post-hoc test. *: p< 0.05, **: p < 0.01, ***: p < 0.001, ****: p<0.0001 compared to vehicle.
# DIO mice [2] = assay: Chronic GIPA-1 study: OGTT and insulin responses in DIO mice; conditions: n = 10
# Description: as §1, with “overnight. The minipump was placed subcutaneously through a 1-cm long incision in the neck with the animal under isoflurane anesthesia. Animals were treated with analgesics on day 0–3 (NSAID, carprofen 50 mg/kg SC QD).” for “overnight.”
# (§2) Fig 3 Effects of GIPA-1 and GIPA-2 on oral glucose tolerance and insulin responses in DIO mice. […] Statistical analysis was calculated using two-way ANOVA with Tukey’s post-hoc test and one-way ANOVA with Dunnett’s post-hoc test. *: p< 0.05, **: p < 0.01, ***: p < 0.001, ****: p<0.0001 compared to vehicle.
# DIO mice [3] = assay: Chronic GIPA-2 study: OGTT in DIO mice; conditions: day 17; oral glucose 2 g/kg one hour after daily dose; liraglutide 0.2 mg/kg SC, GIPA-2 10 mg/kg SC; n = 10
# Description: For studying the chronic effects of GIPA-2, male C57BL/6JRj mice (n = 40) were fed a HFD (SSNIFF® diet #12492) for 43 weeks. DIO mice were randomized (n = 10 per group) based on baseline blood glucose and body weight. Liraglutide was dissolved in PBS plus 0.1% BSA (Vehicle1) and GIPA-2 in PBS (vehicle 2). Mice received one of the following four treatments daily for 28 days while still maintained on HFD: (1) vehicle 1 (SC) and vehicle 2 (SC); (2) 0.2 mg/kg liraglutide (SC) and vehicle 2; (3) vehicle 1 (SC) and 10 mg/kg GIPA-2 (SC); and (4) 0.2 mg/kg liraglutide (SC) plus 10 mg/kg GIPA-2 (SC). […] Fasted (4 hrs) blood glucose and insulin were measured on study day -4, 10 and 26. […] Blood glucose was measured before their daily dosing and at 0, 15, 30 60, 120, 180 and 240 min after glucose administration. […] Blood glucose was measured before their daily dosing and at 0, 15, 30 60, 120, 180 min after glucose administration. […]
# as §2
substance,measurement,setting,value
liraglutide,body weight,DIO mice [1],reduced both body weight and food intake
same,cumulative food intake,DIO mice [1],reduced both body weight and food intake
same,insulin at time 0 of the OGTT,"DIO mice [2]; day 21, fasted, GIPA-1 study",liraglutide-induced decrement in insulin at time 0 of the OGTT
same,baseline blood glucose (-30 min) of OGTT,"DIO mice [2]; day 21, GIPA-1 study",lower in the liraglutide group and in the combination group
same,glucose excursion in OGTT,"DIO mice [2]; day 21, oral glucose 2 g/kg, liraglutide 0.2 mg/kg SC, GIPA-1 ~4.5 mg/kg/day minipump",beneficial glucose lowering effects of liraglutide
same,glucose excursion in OGTT,DIO mice [3],beneficial glucose lowering effects of liraglutide
